Assay results taken from ChEMBL document CHEMBL1201862, “PubChem BioAssay data set” (2004).
Activity calls are given as the source filed them. Cut-off read from the data, not from the text of the source, for most assays here: actives have a measured EC50 and inactives only a lower limit.

What was measured:
Hexokinase HKDC1 = target: T1, Hexokinase HKDC1 (Homo sapiens, UniProt Q2TB90); assay: HKDC1 hexokinase activators, dose response, biochemical, W721R variant (AID 504730); type: functional
T1 sequence (Q2TB90 whole entry): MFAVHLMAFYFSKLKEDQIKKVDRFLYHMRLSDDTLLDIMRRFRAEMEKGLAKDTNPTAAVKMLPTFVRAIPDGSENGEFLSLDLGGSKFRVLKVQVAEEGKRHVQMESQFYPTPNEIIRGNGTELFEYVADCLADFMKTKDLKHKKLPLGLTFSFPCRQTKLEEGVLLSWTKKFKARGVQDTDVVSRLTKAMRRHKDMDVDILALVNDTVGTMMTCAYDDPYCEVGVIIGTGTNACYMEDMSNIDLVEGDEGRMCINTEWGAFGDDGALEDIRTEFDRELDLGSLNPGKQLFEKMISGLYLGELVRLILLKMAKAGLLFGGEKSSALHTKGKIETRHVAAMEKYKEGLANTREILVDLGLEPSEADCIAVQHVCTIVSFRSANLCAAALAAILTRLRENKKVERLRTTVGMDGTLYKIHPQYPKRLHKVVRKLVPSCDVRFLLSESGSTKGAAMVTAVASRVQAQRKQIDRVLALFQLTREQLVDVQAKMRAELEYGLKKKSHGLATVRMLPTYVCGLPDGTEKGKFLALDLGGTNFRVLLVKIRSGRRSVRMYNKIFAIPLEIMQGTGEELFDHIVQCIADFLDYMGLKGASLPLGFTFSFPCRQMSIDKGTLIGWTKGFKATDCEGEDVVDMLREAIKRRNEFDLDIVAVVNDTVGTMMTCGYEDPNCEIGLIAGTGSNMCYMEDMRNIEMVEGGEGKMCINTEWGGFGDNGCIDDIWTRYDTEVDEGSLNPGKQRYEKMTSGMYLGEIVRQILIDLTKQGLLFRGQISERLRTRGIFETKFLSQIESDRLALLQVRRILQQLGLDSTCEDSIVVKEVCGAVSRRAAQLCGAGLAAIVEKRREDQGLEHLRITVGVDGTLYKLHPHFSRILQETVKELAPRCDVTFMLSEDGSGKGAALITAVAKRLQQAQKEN

Nonstructural protein 1 = Nonstructural protein 1 (Influenza A virus, UniProt Q194T2); type: functional, Influenza A virus (A/California/07/2009(H1N1))
Hexokinase-1 = Hexokinase-1 (Homo sapiens, UniProt P19367); assay: hexokinase 1 activators, dose response, selectivity assay for HKDC1 activator project, biochemical (AID 504762); type: functional
HEK293 = assay: inhibitors of LMP1-driven NF-kB reporter, dose response, cell-based, HEK293, luciferase, cherry-pick (AID 588343); type: functional; details: Homo sapiens
[1] = Luminescence Cell-Based Dose Response to Identify Activators of Luciferase Translation or Activity in H4-C Neuroglioblastoma Cells. [Related pubchem assays: 1829 (Project Summary), 1814 (Primary HTS)]; type: functional
Troponin, cardiac muscle = Troponin, cardiac muscle (Homo sapiens, UniProt P19429+P45379+P63316); assay: Fluorescence-based biochemical high throughput dose response assay for activators of the calcium sensitivity of cardiac Regulated Thin Filaments (RTF). [Related pubchem assays (depositor defined):AID493008, AID493018, AID504382, AID504383]; type: protein-complex assay
[2] = target: T2, Zinc finger protein mex-5 (Caenorhabditis elegans, UniProt Q9XUB2); assay: MEX-5/TCR-2 RNA interaction inhibitors, dose response, biochemical, C. elegans, fluorescence polarization (AID 1960)
T2 sequence (Q9XUB2 whole entry): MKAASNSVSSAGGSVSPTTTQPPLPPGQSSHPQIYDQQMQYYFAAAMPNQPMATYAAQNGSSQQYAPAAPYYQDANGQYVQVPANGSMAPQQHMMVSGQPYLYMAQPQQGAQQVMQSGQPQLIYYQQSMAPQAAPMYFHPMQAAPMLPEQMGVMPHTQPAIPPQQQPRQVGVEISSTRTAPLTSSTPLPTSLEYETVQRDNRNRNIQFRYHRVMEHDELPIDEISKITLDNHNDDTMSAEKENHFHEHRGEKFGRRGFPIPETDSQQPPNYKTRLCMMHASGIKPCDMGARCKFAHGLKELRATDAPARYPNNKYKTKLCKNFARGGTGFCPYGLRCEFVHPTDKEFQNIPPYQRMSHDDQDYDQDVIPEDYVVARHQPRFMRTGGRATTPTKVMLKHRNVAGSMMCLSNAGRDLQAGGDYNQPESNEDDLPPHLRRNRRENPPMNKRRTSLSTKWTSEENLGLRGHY

[3] = Luminescence Cell-Based Dose Response to Identify Activators of 5'UTR Stem-Loop Driven Prion Protein mRNA Translation in H4-C Neuroglioblastoma Cells. [Related pubchem assays: 1829 (Project Summary), 1814 (Primary HTS)]; type: functional
[4] = Luminescence Cell-Based Dose Response HTS to Identify Activators of Luciferase Translation or Activity in H4 […] Cells. [Related pubchem assays: 1829 (Project Summary), 1814 (Primary HTS)]; type: functional
[5] = Luminescence Cell-Based Dose Confirmation to Identify Activators of 5'UTR Stem-Loop Driven Alpha-Synuclein mRNA Translation in H4 Neuroglioblastoma Cells. [Related pubchem assays: 1829 (Project Summary), 1814 (Primary HTS)]; type: functional
[6] = target: T3, RNA-binding protein pos-1 (Caenorhabditis elegans, UniProt G5EF15); assay: inhibitors of POS-1/mex-3 RNA binding, dose response, biochemical, fluorescence polarization (AID 1964);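 note: purified POS-1 fused to maltose binding protein made in E. coli; potency of compounds blocking POS-1 binding to fluorescent RNA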
T3 sequence (G5EF15 whole entry): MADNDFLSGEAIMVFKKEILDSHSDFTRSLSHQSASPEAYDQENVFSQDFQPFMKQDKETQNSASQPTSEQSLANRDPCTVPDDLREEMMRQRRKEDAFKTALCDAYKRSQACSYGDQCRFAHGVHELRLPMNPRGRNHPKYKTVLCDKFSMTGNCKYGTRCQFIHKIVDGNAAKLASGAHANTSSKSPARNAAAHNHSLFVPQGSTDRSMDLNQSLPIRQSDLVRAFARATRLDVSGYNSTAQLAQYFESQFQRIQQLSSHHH

H4 = assay: Luminescence Cell-Based Dose Response HTS to Identify Activators of 5'UTR Stem-Loop Driven Prion Protein mRNA Translation in H4 Neuroglioblastoma Cells. [Related pubchem assays: 1829 (Project Summary), 1814 (Primary HTS)]; type: functional; details: Homo sapiens

Hexokinase-1, sequence (P19367 whole entry): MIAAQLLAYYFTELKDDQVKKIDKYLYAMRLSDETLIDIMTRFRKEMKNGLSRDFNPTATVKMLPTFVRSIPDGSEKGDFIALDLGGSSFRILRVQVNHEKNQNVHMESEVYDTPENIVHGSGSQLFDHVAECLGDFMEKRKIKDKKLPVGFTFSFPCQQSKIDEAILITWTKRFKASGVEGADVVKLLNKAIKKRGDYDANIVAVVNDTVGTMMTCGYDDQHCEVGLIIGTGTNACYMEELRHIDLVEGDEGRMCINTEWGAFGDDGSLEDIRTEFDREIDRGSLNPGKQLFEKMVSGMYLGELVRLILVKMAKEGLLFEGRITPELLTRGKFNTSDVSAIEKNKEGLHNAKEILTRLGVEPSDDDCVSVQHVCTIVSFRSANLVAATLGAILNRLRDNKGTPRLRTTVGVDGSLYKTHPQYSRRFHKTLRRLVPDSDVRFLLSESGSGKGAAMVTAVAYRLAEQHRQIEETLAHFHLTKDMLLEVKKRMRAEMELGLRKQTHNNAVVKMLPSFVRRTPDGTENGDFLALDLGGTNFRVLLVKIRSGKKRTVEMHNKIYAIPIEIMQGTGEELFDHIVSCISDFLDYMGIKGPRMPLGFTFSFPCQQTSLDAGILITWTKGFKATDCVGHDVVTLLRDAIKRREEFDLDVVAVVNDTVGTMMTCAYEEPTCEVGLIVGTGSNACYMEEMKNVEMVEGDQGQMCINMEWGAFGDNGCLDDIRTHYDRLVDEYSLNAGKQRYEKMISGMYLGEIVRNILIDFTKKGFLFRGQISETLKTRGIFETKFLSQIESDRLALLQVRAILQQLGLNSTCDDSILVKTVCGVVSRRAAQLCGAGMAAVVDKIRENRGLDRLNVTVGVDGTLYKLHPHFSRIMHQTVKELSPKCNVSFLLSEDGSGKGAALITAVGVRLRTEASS
Nonstructural protein 1, sequence (Q194T2 whole entry): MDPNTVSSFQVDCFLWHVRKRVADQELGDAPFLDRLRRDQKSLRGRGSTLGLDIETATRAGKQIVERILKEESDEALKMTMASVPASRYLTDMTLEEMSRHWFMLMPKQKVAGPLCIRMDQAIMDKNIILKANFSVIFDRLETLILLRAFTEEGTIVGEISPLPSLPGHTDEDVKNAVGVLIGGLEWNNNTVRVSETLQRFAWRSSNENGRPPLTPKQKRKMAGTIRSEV

For `CC(=NNC(=S)N1CC2CCC(CC2)C1)c1nccs1`, which EC50 (Hexokinase HKDC1) is on record?
The EC50 was 1830 nM (active).

What about the IC50 (Nonstructural protein 1) of the same compound?
Its IC50 is 13000 nM (active).

What about the EC50 (Hexokinase-1) of the same compound?
Its EC50 is > 80000 nM (inactive).

And the AC50 (HEK293)?
The AC50 was 539 nM (active).

With `CN1C(=O)/C(=C/c2ccc(N3CCCCCC3)o2)C(=O)NC1=S` as the compound, how does the EC50 [1] read?
Its EC50 is 462 nM (active).

What about the EC50 (Troponin, cardiac muscle) of the same compound?
The EC50 was 2220 nM (active).

And the EC50 [2]?
Its EC50 is > 300000 nM (inconclusive).

What about the EC50 [3] of the same compound?
The EC50 was 325 nM (active).

And the EC50 [4]?
Its EC50 is < 100 nM (active).

What about the EC50 [5] of the same compound?
The EC50 was 206 nM (active).

And the EC50 [6]?
The EC50 was > 300000 nM (not active).

And the EC50 (H4)?
The EC50 was 39500 nM (active).
